Here are results for twelve molecules from patent US20240228489A1, “POSITIVE ALLOSTERIC MODULATORS OF THE MUSCARINIC ACETYLCHOLINE RECEPTOR M1” (Vanderbilt University, priority 2021, published 2024).

Experiment [1] deals with T1, human mAChR M1 (Homo sapiens, UniProt P11229).
T1 sequence (P11229 1-460): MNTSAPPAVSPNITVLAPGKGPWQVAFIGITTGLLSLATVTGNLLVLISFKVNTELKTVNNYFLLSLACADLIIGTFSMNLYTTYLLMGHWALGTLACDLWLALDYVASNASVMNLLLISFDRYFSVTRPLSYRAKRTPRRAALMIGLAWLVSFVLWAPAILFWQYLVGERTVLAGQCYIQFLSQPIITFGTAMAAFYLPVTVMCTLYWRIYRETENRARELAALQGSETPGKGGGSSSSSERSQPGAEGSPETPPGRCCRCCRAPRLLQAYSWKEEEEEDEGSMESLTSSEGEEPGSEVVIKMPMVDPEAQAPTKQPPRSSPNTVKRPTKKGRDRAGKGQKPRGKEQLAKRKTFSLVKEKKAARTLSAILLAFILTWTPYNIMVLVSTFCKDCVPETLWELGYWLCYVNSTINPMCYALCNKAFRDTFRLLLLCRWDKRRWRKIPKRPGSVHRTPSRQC
Nature of the experiment: mAChR M1 cell-based functional assay (calcium mobilization), PAM mode: increase in the EC20 acetylcholine response. The source says: (§1) Chinese hamster ovary (CHO-K1) cells stably expressing rat (r)M1 were purchased from the American Type Culture Collection and cultured according to their indicated protocol. CHO cells stably expressing human (h)M2, hM3, and hM5 were described previously (Levey, et al., 1991); hM1 and hM4 cDNAs were purchased from Missouri S&T cDNA Resource; rM4 cDNA was provided by T. I. Bonner (National Institutes of Health, Bethesda, MD). rM2 and rM3 were cloned from a rat brain cDNA library and sequence verified. hM1, rM2, rM3, hM4, and rM4 cDNAs were used to stably transfect CHO-K1 cells purchased from the American Type Culture Collection using Lipofectamine2000. To make stable rM2, hM2, rM3, hM4, and rM4 cell lines for use in calcium mobilization assays, these cells also were stably transfected with a chimeric G-protein (Gqi5) (provided by B. R. Conklin, University of California, San Francisco) using Lipofectamine 2000. rM1, hM1, rM3, hM3, rM5, and hM5 cells were grown in Ham's F-12 medium containing 10% heat-inactivated fetal bovine serum (FBS), 20 mM HEPES, and 50 μg/mL G418 sulfate. rM2-Gqi5, hM2-Gqi5, and hM4-Gqi5 cells were grown in the same medium also containing 500 μg/mL Hygromycin B. Stable rM4-Gqi5 cells were grown in DMEM containing 10% heat-inactivated FBS, 20 mM HEPES, 400 μg/mL G418 sulfate, and 500 μg/mL Hygromycin B.
(§2) For high throughput measurement of agonist-evoked increases in intracellular calcium, CHO-K1 cells stably expressing muscarinic receptors were plated in growth medium lacking G418 and hygromycin at 15,000 cells/20 μL/well in Greiner 384-well black-walled, tissue culture (TC)-treated, clear-bottom plates (VWR). Cells were incubated overnight at 37° C. and 5% C02. The next day, cells were washed using an ELX 405 (BioTek) with four washes (80 μL) of assay buffer then aspirated to 20 μL. Next, 20 μL of 16 μM Fluo-4/acetoxymethyl ester (Invitrogen, Carlsbad, CA) prepared as a 2.3 mM stock in DMSO and mixed in a 1:1 ratio with 10% (w/v) Pluronic F-127 and diluted in assay buffer was added to the wells and the cell plates were incubated for 50 min at 37° C. and 5% C02. Dye was removed by washing with the ELX 405 (four 80 μL washes of assay buffer) then aspirated to 20 μL. Compound master plates were formatted in an 11 point CRC format (1:3 dilutions) in 100% DMSO with a starting concentration of 10 mM using the BRAVO liquid handler (Agilent). Test compound CRCs were then transferred to daughter plates (240 nL) using the Echo acoustic plate reformatter (Labcyte, Sunnyvale, CA) and then diluted into assay buffer (40 μL) to a 2× stock using a Thermo Fisher Combi (Thermo Fisher Scientific, Waltham, MA).
Calcium flux was measured using the Functional Drug Screening System (FDSS) 6000 (Hamamatsu Corporation, Tokyo, Japan) as an increase in the fluorescent static ratio. Compounds were applied to cells (20 μL, 2×) using the automated system of the FDSS 6000 at 4 s into the 300 s protocol and the data were collected at 1 Hz. At 144 s into the 300 s protocol, 10 μL of an EC20 concentration of the muscarinic receptor agonist acetylcholine was added (5×), followed by the addition of 12 μL of an EC80 concentration of acetylcholine at the 230 s time point (5×). Agonist activity was analyzed as a concentration-dependent increase in calcium mobilization upon compound addition. Emax values for agonist activity are expressed relative to the maximum for acetylcholine. Positive allosteric modulator activity was analyzed as a concentration-dependent increase in the EC20 acetylcholine response. Antagonist activity was analyzed as a concentration-dependent decrease in the EC80 acetylcholine response. Concentration-response curves were generated using a four-parameter logistical equation in XLfit curve fitting software (IDBS, Bridgewater, NJ) for Excel (Microsoft, Redmond, WA) or Prism (GraphPad Software, Inc., San Diego, CA). […]

Experiment [2] addresses T1, human mAChR M1. Nature of the experiment: mAChR M1 cell-based functional assay (calcium mobilization), agonist mode: compound alone, Emax relative to acetylcholine maximum. The conditions noted are these: for Agonist Activity Human M1 EC50 / EC50: human mAChR M1; for Emax: relative to the maximum for acetylcholine.
Source text: as §1, §2
Calcium flux was measured using the Functional Drug Screening System (FDSS) 6000 (Hamamatsu Corporation, Tokyo, Japan) as an increase in the fluorescent static ratio. Compounds were applied to cells (20 μL, 2×) using the automated system of the FDSS 6000 at 4 s into the 300 s protocol and the data were collected at 1 Hz. At 144 s into the 300 s protocol, 10 μL of an EC20 concentration of the muscarinic receptor agonist acetylcholine was added (5×), followed by the addition of 12 μL of an EC80 concentration of acetylcholine at the 230 s time point (5×). Agonist activity was analyzed as a concentration-dependent increase in calcium mobilization upon compound addition. Emax values for agonist activity are expressed relative to the maximum for acetylcholine. Positive allosteric modulator activity was analyzed as a concentration-dependent increase in the EC20 acetylcholine response. Antagonist activity was analyzed as a concentration-dependent decrease in the EC80 acetylcholine response. Concentration-response curves were generated using a four-parameter logistical equation in XLfit curve fitting software (IDBS, Bridgewater, NJ) for Excel (Microsoft, Redmond, WA) or Prism (GraphPad Software, Inc., San Diego, CA).
A general note: Calcium assays in cells follow changes in intracellular calcium, usually with a dye or a luminescent sensor.

In general, EC50 refers to the concentration needed to bring the measured effect to its halfway point. What is called Emax is the size of the effect at its maximum, as opposed to the concentration needed. For the molecule `[2H]C1([2H])c2ncccc2C(=O)N1Cc1c(F)cc(-c2ccc(OCCN(C)C)c3nn(C)cc23)cc1F` [Compound 131, 6-(4-(7-(2-(dimethylamino)ethoxy)-2-methyl-2H-indazol-4-yl)-2,6-difluorobenzyl)-6,7-dihydro-5H-pyrrolo[3,4-b]pyridin-5-one-7,7-d2], on human mAChR M1 [1], the EC50 is 381 nM and the Emax was determined as 80%. Also, at human mAChR M1 [2], the “Agonist Activity Human M1 EC50” value is listed as “Inactive” and the Emax stood at 5%.

As to `[2H]C([2H])([2H])Oc1cnc2c(c1)C(=O)N(Cc1ccc(-c3cccc4nn(C)cc34)cc1)C2([2H])[2H]` [Compound 83, 3-(methoxy-d3)-6-(4-(2-methyl-2H-indazol-4-yl)benzyl)-6,7-dihydro-5H-pyrrolo[3,4-b]pyridin-5-one-7,7-d2], at human mAChR M1 [1], the EC50 was 244 nM and the Emax turned out to be 80%. For the same molecule, at human mAChR M1 [2], the EC50 is 6230 nM and the Emax came out at 19%.

For the molecule `[2H]C1([2H])c2ncccc2C(=O)N1Cc1ccc(-c2cncc3nn(C)cc23)cc1F` [Compound 120, 6-(2-fluoro-4-(2-methyl-2H-pyrazolo[3,4-c]pyridin-4-yl)benzyl)-6,7-dihydro-5H-pyrrolo[3,4-b]pyridin-5-one-7,7-d2], on human mAChR M1 [1], the EC50 turned out to be 2820 nM and the Emax was 66%. On human mAChR M1 [2], the “Agonist Activity Human M1 EC50” value was “Inactive” and the Emax was found to be 2%.

Take `[2H]C1([2H])c2ncccc2C(=O)N1Cc1c(F)cc(-c2ccc(S(C)(=N)=O)c3nn(C)cc23)cc1F` (stereo not drawn) [Compound 182, 6-(2,6-difluoro-4-(2-methyl-7-(S-methylsulfonimidoyl)-2H-indazol-4-yl)benzyl)-6,7-dihydro-5H-pyrrolo[3,4-b]pyridin-5-one-7,7-d2]: on human mAChR M1 [1], the EC50 was found to be 594 nM and the Emax came out at 87%. For the same molecule, at human mAChR M1 [2], the “Agonist Activity Human M1 EC50” value is on record as “Inactive” and the Emax amounted to 3%.

For the molecule `[2H]C1([2H])c2ncccc2C(=O)N1Cc1c(C)cc(-c2ccc(OCCOC)c3nn(C)cc23)cc1F` [Compound 177, 6-(2-fluoro-4-(7-(2-methoxyethoxy)-2-methyl-2H-indazol-4-yl)-6-methylbenzyl)-6,7-dihydro-5H-pyrrolo[3,4-b]pyridin-5-one-7,7-d2], on human mAChR M1 [1], the EC50 turned out to be 201 nM and the Emax was 82%. Further, at human mAChR M1 [2], the EC50 is 6120 nM and the Emax came out at 27%.

`[2H]C1([2H])c2ncccc2C(=O)N1Cc1c(F)cc(-c2ccc(OCC3(C#N)CC3)c3nn(C)cc23)cc1F` [Compound 174, 1-(((4-(3,5-difluoro-4-((5-oxo-5,7-dihydro-6H-pyrrolo[3,4-b]pyridin-6-yl-7,7-d2)methyl)phenyl)-2-methyl-2H-indazol-7-yl)oxy)methyl)cyclopropane-1-carbonitrile]: on human mAChR M1 [1], the EC50 was 193 nM and the Emax was 86%. In addition, at human mAChR M1 [2], the EC50 stood at 8120 nM and the Emax turned out to be 26%.

For `[2H]C1([2H])c2ncccc2C(=O)N1Cc1c(F)cc(-c2cccc3nn(C([2H])([2H])[2H])cc23)cc1Cl` [Compound 161, 6-(2-chloro-6-fluoro-4-(2-(methyl-d3)-2H-indazol-4-yl)benzyl)-6,7-dihydro-5H-pyrrolo[3,4-b]pyridin-5-one-7,7-d2], at human mAChR M1 [1], the EC50 came to 353 nM and the Emax was determined as 81%. On human mAChR M1 [2], the “Agonist Activity Human M1 EC50” value is listed as “Inactive” and the Emax amounted to 6%.

`[2H]C1([2H])c2ncccc2C(=O)N1Cc1c(F)cc(-c2ccc(C(F)F)c3nn(C)cc23)cc1F` [Compound 123, 6-(4-(7-(difluoromethyl)-2-methyl-2H-indazol-4-yl)-2,6-difluorobenzyl)-6,7-dihydro-5H-pyrrolo[3,4-b]pyridin-5-one-7,7-d2]: at human mAChR M1 [1], the EC50 was 490 nM and the Emax turned out to be 80%. On human mAChR M1 [2], the EC50 is 7930 nM and the Emax was determined as 11%.

On to `[2H]C1([2H])c2ncccc2C(=O)N1Cc1c(C)cc(-c2ccc(C(F)(F)F)c3nn(C)cc23)cc1F` [Compound 200, 6-(2-fluoro-6-methyl-4-(2-methyl-7-(trifluoromethyl)-2H-indazol-4-yl)benzyl)-6,7-dihydro-5H-pyrrolo[3,4-b]pyridin-5-one-7,7-d2], for which, at human mAChR M1 [1], the EC50 was determined as 768 nM and the Emax came to 83%. Besides, on human mAChR M1 [2], the EC50 is not below 10000 nM and the Emax is 15%.

On to `[2H]C1([2H])c2ncccc2C(=O)N1Cc1c(F)cc(-c2cccc3nn(C([2H])([2H])[2H])cc23)cc1N1CCC1` [Compound 222, 6-(2-(azetidin-1-yl)-6-fluoro-4-(2-(methyl-d3)-2H-indazol-4-yl)benzyl)-6,7-dihydro-5H-pyrrolo[3,4-b]pyridin-5-one-7,7-d2], for which, on human mAChR M1 [1], the EC50 amounted to 3780 nM and the Emax was determined as 77%. On human mAChR M1 [2], the “Agonist Activity Human M1 EC50” value is reported as “Inactive” and the Emax was determined as 1%.

`[2H]C1([2H])c2ncccc2C(=O)N1Cc1c(F)cc(-c2ccc(OC(C)COC)c3nn(C)cc23)cc1F` (stereo not drawn) [Compound 133, 6-(2,6-difluoro-4-(7-((1-methoxypropan-2-yl)oxy)-2-methyl-2H-indazol-4-yl)benzyl)-6,7-dihydro-5H-pyrrolo[3,4-b]pyridin-5-one-7,7-d2]: on human mAChR M1 [1], the EC50 came out at 486 nM and the Emax was found to be 79%. For the same molecule, on human mAChR M1 [2], the EC50 was not below 10000 nM and the Emax was 35%.

`[2H]C1([2H])c2ncccc2C(=O)N1Cc1ccc(-c2ccc(O[C@H]3CCOC3)c3nn(C)cc23)cc1F` [Compound 144, (S)-6-(2-fluoro-4-(2-methyl-7-((tetrahydrofuran-3-yl)oxy)-2H-indazol-4-yl)benzyl)-6,7-dihydro-5H-pyrrolo[3,4-b]pyridin-5-one-7,7-d2]: on human mAChR M1 [1], the EC50 was determined as 751 nM and the Emax was found to be 75%. Besides, at human mAChR M1 [2], the EC50 is not below 10000 nM and the Emax was 18%.
